From PubChem BioAssay AID272 (DTP/NCI, 2004)
Results filed as inconclusive are left out.

System: Lewis lung carcinoma i.m., BDF1 mice, T/C %
Assay: NCI In Vivo Anticancer Drug Screen. Data for tumor model Lewis Lung Carcinoma (intramuscular) in B6D2F1 (BDF1) mice
Outline: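 Mice carrying transplantable tumours received test compound. Survival or tumour size was recorded and expressed as the treated-group value (T) divided by the vehicle-treated control-group value (C).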

[1] = endpoint: mean tumor weight (est.), dose: 25.0 mg/kg/injection, schedule: Q01DX011 (ip), vehicle: saline with Tween-80, higher = larger tumour
[2] = endpoint: mean tumor weight (est.), dose: 50.0 mg/kg/injection, schedule: Q01DX011 (ip), vehicle: saline with Tween-80, higher = larger tumour
[3] = endpoint: mean tumor weight (est.), dose: 100.0 mg/kg/injection, schedule: Q01DX011 (ip), vehicle: saline with Tween-80, higher = larger tumour

Cc1c(N)nc(C(CC(N)=O)NCC(N)C(N)=O)nc1C(=O)NC(C(=O)NC(C)C(O)C(C)C(=O)NC(C(=O)NCCc1nc(-c2nc(C(=O)NCCC[S+](C)C)cs2)cs1)C(C)O)C(OC1OC(CO)C(O)C(O)C1OC1OC(CO)C(O)C(OC(N)=O)C1O)c1cnc[nH]1 (centres undefined)
T/C (endpoint: median survival time, dose: 6.5 mg/kg/injection, schedule: Q01DX011 (ip), vehicle: saline, higher = longer survival): 152 % of control | T/C (endpoint: median survival time, dose: 10.8 mg/kg/injection, schedule: Q01DX011 (ip), vehicle: saline, higher = longer survival): 168 % of control | T/C (endpoint: median survival time, dose: 18.0 mg/kg/injection, schedule: Q01DX011 (ip), vehicle: saline, higher = longer survival): 166 % of control

CC1=Nc2ccccc2/C1=C\c1c(C)[nH]c2ccccc12
T/C [1]: 52 % of control | T/C [2]: 68 % of control | T/C [3]: 29 % of control | T/C (endpoint: median survival time, dose: 25.0 mg/kg/injection, schedule: Q01DX011 (ip), vehicle: saline with Tween-80, higher = longer survival): 104 % of control | T/C (endpoint: median survival time, dose: 50.0 mg/kg/injection, schedule: Q01DX011 (ip), vehicle: saline with Tween-80, higher = longer survival): 93 % of control | T/C (endpoint: median survival time, dose: 100.0 mg/kg/injection, schedule: Q01DX011 (ip), vehicle: saline with Tween-80, higher = longer survival): 100 % of control

OCN(CO)c1nc(N(CO)CO)nc(N(CO)CO)n1
T/C [1]: 112 % of control | T/C [2]: 85 % of control | T/C [3]: 116 % of control | T/C (endpoint: mean tumor weight (est.), dose: 200.0 mg/kg/injection, schedule: Q01DX011 (ip), vehicle: saline with Tween-80, higher = larger tumour): 120 % of control | T/C (endpoint: mean tumor weight (est.), dose: 400.0 mg/kg/injection, schedule: Q01DX011 (ip), vehicle: saline with Tween-80, higher = larger tumour): 73 % of control

CNc1ccc(O)cc1
T/C (endpoint: mean tumor weight (est.), dose: 6.25 mg/kg/injection, schedule: Q01DX011 (ip), vehicle: saline, higher = larger tumour): 97 % of control | T/C (endpoint: mean tumor weight (est.), dose: 12.5 mg/kg/injection, schedule: Q01DX011 (ip), vehicle: saline, higher = larger tumour): 97 % of control | T/C (endpoint: mean tumor weight (est.), dose: 25.0 mg/kg/injection, schedule: Q01DX011 (ip), vehicle: saline, higher = larger tumour): 89 % of control | T/C (endpoint: mean tumor weight (est.), dose: 50.0 mg/kg/injection, schedule: Q01DX011 (ip), vehicle: saline, higher = larger tumour): 82 % of control | T/C (endpoint: median survival time, dose: 6.25 mg/kg/injection, schedule: Q01DX011 (ip), vehicle: saline, higher = longer survival): 101 % of control | T/C (endpoint: median survival time, dose: 12.5 mg/kg/injection, schedule: Q01DX011 (ip), vehicle: saline, higher = longer survival): 105 % of control | T/C (endpoint: median survival time, dose: 25.0 mg/kg/injection, schedule: Q01DX011 (ip), vehicle: saline, higher = longer survival): 100 % of control | T/C (endpoint: median survival time, dose: 50.0 mg/kg/injection, schedule: Q01DX011 (ip), vehicle: saline, higher = longer survival): 101 % of control

O=C(Nc1ccc(C2=NCCN2)cc1)c1ccc(C(=O)Nc2ccc(C3=NCCN3)cc2)c(Cl)c1
T/C (endpoint: median survival time, dose: 4.0 mg/kg/injection, schedule: Q01DX011 (ip), vehicle: water, higher = longer survival): 90 % of control

COc1cc([C@@H]2c3cc4c(cc3[C@@H](OC3OC5COC(C)OC5C(O)C3O)[C@H]3COC(=O)[C@H]23)OCO4)cc(OC)c1O (some centres undefined)
T/C (endpoint: mean tumor weight (est.), dose: 0.25 mg/kg/injection, schedule: Q01DX011 (ip), vehicle: saline, higher = larger tumour): 72 % of control | T/C (endpoint: mean tumor weight (est.), dose: 0.5 mg/kg/injection, schedule: Q01DX011 (ip), vehicle: saline, higher = larger tumour): 67 % of control | T/C (endpoint: mean tumor weight (est.), dose: 1.0 mg/kg/injection, schedule: Q01DX011 (ip), vehicle: saline, higher = larger tumour): 79 % of control | T/C (endpoint: mean tumor weight (est.), dose: 2.0 mg/kg/injection, schedule: Q01DX011 (ip), vehicle: saline, higher = larger tumour): 74 % of control | T/C (endpoint: mean tumor weight (est.), dose: 4.0 mg/kg/injection, schedule: Q01DX011 (ip), vehicle: saline, higher = larger tumour): 43 % of control | T/C (endpoint: mean tumor weight (est.), dose: 5.0 mg/kg/injection, schedule: Q01DX011 (ip), vehicle: saline, higher = larger tumour): 105 % of control | T/C (endpoint: median survival time, dose: 0.25 mg/kg/injection, schedule: Q01DX011 (ip), vehicle: saline, higher = longer survival): 96 % of control | T/C (endpoint: median survival time, dose: 0.5 mg/kg/injection, schedule: Q01DX011 (ip), vehicle: saline, higher = longer survival): 98 % of control | T/C (endpoint: median survival time, dose: 1.0 mg/kg/injection, schedule: Q01DX011 (ip), vehicle: saline, higher = longer survival): 96 % of control | T/C (endpoint: median survival time, dose: 2.0 mg/kg/injection, schedule: Q01DX011 (ip), vehicle: saline, higher = longer survival): 107 % of control | T/C (endpoint: median survival time, dose: 4.0 mg/kg/injection, schedule: Q01DX011 (ip), vehicle: saline, higher = longer survival): 101 % of control

Cc1c2ccncc2c(C)c2c1[nH]c1ccccc12
T/C (endpoint: median survival time, dose: 1.56 mg/kg/injection, schedule: Q01DX011 (ip), vehicle: water, higher = longer survival): 100 % of control | T/C (endpoint: median survival time, dose: 3.12 mg/kg/injection, schedule: Q01DX011 (ip), vehicle: water, higher = longer survival): 100 % of control | T/C (endpoint: median survival time, dose: 6.25 mg/kg/injection, schedule: Q01DX011 (ip), vehicle: water, higher = longer survival): 108 % of control

O=NN(CCCl)C(=O)NCc1ccc(-c2ccc(CNC(=O)N(CCCl)N=O)cc2)cc1
T/C (endpoint: median survival time, dose: 108.0 mg/kg/injection, schedule: Q07DX003 (ip), vehicle: Klucel (hydroxypropylcellulose) (HPC), higher = longer survival): 104 % of control | T/C (endpoint: median survival time, dose: 180.0 mg/kg/injection, schedule: Q07DX003 (ip), vehicle: Klucel (hydroxypropylcellulose) (HPC), higher = longer survival): 93 % of control
